{"source": "patent US20100209934A1", "about": "“METHOD OF IDENTIFYING AGENTS WHICH MODULATE THE ACTIVITY OF CALCIUM-ACTIVATED CHLORIDE CHANNEL” (SNU R&DB FOUNDATION, priority 2007, published 2010)", "key": {"[1]": {"tested_on": "mouse ANO1", "assay": "Whole-cell current recording in mouse ANO1 stable HEK cell line", "format": "cell-based", "settings": "500 nM ionomycin, mANO1 stable HEK cell line", "description": "A stable cell line (HEK cells) that constitutively over-expresses mANO1 is constructed for high throughput screening analysis. In order to test whether the HEK cell line elicits ANO1 currents, ionomycin was applied. Application of ionomycin evoked a robust inward Cl^− currents in a whole cell. Pipette and bath solutions contained 140 mM NMDG-Cl.\nHEK293 cells were transfected with pEGFP-N-1-mANO1 using Lipofectamine (Invitrogen Corp., Carlsbad, Calif.). After selection in 800 μg/ml geneticin (Invitrogen Corp., Carlsbad, Calif.) for 15 days, single colonies were picked with cloning cylinders and tested for activity of ANO1.\nTo detect active compounds from chemical libraries or other sources of chemicals, a stable cell line, that constitutively expresses mouse ANO1, was constructed in accordance with the method of Reference Example 7. To construct a stable cell line, mouse ANO1 DNA was incorporated to the genomic DNA of human embryonic kidney (HEK) cells.\nThis confirms that ANO1 is constitutively expressed in the stable cell line."}, "[2]": {"target": "T1, mANO1 (Mus musculus, UniProt Q8BHY3, S527P)", "T1 sequence (Q8BHY3 1-960 S527P)": "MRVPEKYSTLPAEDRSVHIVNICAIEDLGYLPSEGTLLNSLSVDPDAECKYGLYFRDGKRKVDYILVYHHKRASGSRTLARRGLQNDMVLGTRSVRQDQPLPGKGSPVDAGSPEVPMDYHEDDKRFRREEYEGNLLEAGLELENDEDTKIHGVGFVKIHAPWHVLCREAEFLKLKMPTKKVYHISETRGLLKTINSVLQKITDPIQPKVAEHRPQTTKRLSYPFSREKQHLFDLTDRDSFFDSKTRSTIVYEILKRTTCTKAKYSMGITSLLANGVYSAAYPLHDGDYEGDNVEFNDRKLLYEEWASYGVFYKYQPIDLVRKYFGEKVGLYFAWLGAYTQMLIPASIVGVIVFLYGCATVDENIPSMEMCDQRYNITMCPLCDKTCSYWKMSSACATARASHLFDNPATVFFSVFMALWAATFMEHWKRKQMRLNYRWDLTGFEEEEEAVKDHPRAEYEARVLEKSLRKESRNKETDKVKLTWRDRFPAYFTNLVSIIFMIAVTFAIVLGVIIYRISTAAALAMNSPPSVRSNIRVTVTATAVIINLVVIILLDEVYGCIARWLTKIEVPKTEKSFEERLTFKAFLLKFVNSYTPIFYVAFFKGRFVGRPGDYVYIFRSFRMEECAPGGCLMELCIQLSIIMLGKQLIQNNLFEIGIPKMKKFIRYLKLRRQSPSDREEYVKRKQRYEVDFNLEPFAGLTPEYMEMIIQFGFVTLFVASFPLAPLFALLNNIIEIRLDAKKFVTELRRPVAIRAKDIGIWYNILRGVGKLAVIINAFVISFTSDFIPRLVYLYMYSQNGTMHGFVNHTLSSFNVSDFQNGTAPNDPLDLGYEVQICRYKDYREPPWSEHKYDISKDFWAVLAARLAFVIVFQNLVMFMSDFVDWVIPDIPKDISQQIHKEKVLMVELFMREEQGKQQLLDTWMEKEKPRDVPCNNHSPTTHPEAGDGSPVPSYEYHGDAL", "assay": "Two-electrode voltage clamp currents in Xenopus oocytes injected with mANO1 complementary RNA", "format": "cell-based", "design": "expressed in transfected cells; host or cells: Xenopus laevis oocytes (cRNA injection)", "settings": "ionomycin 4 μM; mANO1 expressing oocytes", "description": "pSDTF-mANO1 obtained in Reference Example 1 was linearized using BamHI. Complementary RNA was transcribed with SP6 RNA polymerase (mMESSAGE mMACHINE® SP6 Kit, Ambion, Austin, Tex.). After being defolliculated with collagenase (Type IA, Sigma), Xenopus laevis oocytes were injected with 50 ng of the complementary RNAs of mANO1 in 50 nl of diethylpyrocarbonate-treated water. Two to five days after the injection, whole cell currents were recorded using the two-electrode voltage clamp technique. The bath solution contained 96 mM NaCl, 1 mM MgCl2, 5 mM HEPES, 2 mM KCl and 1.8 mM CaCl2 at pH 7.5 and was perfused at 2 ml/min. Experiments were performed at room temperature.\nXenopus oocytes provide a recognized model for endogenous CaCC studies because they express endogenous CaCCs that are required for ‘fertilization depolarization’ (Hartzell, H. C. et al., Mol Pharmacol 51, 683-92 (1997)). Furthermore, the biophysical and pharmacological properties of Xenopus CaCCs are similar to those of mammalian CaCCs (Machaca, K. et al., Calcium-Activated Chloride Channels (ed. Fuller, C. M.) (Academic Press, Amsterdam, 2002)). Accordingly, the present inventors expressed mANO1 in Xenopus oocytes and tested its activation by receptor stimulation using 1 μM LPA (lysophosphatidic acid). CaCCs in Xenopus are known to be activated by LPA (Guo, Z. et al., Proc Natl Acad Sci USA. 93, 14367-72 (1996); and Kim, M. J. et al., Biochem Pharmacol. 59, 241-7 (2000)). […] Moreover, LPA-induced ANO1 currents were outwardly-rectifying, like those of native CaCCs in Xenopus oocytes (Machaca, K. et al., supra) (FIG. 4C). The reversal potential was 37.7±1.05 mV (n=5), which is close to the equilibrium potential of Cl^− in Xenopus oocytes (Weber, W., Biochim Biophys Acta 1421, 213-33 (1999)).\nIndeed, LPA (1 μM) applied to oocytes expressing mANO1 induced a large inward current.\nFurther, pretreatment of 1 μM thapsigargin blocked the IP3-induced current in a mANO1-expressing oocyte (FIGS. 10C and 10D).\nLPA-induced ANO1 currents were blocked by Cl^− channel blockers. The Cl^− channel blockers were applied 10˜20 min before the LPA application. […] This blockade of agonist-induced ANO1 currents by DIDS, niflumic acid, or NPPB were also observed in mammalian cells transfected with mANO1."}}, "data": [{"compound": "C[C@H](CCC(=O)O)C[C@H](C)C[C@H](C)C(=O)/C=C(\\O)[C@H](C)C[C@H](C)C/C=C/[C@@H](C)[C@@H](O)[C@@H](C)[C@@H](O)C[C@@H]1CC[C@@](C)([C@H]2CC[C@@](C)([C@@H](C)O)O2)O1", "note": "[ionomycin]", "values": [{"measurement": "inward current evoked by ionomycin", "setting": "[1]", "result": "robust inward current"}, {"measurement": "activation of mANO1 by Ca2+ ionophore", "setting": "[2]", "result": "Activation"}]}]}
